Activity calls are given as the source filed them.
Key:
[1] = molecular target: Peroxisome proliferator-activated receptor gamma/Nuclear receptor coactivator 2 (Homo sapiens, UniProt P37231); type: functional;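 note: agonist potency for raising coactivator recruitment to the receptor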
[2] = molecular target: Peroxisome proliferator-activated receptor gamma/Nuclear receptor coactivator 3 (Homo sapiens, UniProt P37231); type: functional;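 note: agonist potency for raising coactivator recruitment to the receptor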
[3] = molecular target: Peroxisome proliferator-activated receptor gamma/Nuclear receptor coactivator 1 (Homo sapiens, UniProt P37231); type: functional;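 note: agonist potency as compounds enhance coactivator SRC-1 recruitment to PPARgamma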
Chain of Peroxisome proliferator-activated receptor gamma/Nuclear receptor coactivator 1 (P37231 whole entry): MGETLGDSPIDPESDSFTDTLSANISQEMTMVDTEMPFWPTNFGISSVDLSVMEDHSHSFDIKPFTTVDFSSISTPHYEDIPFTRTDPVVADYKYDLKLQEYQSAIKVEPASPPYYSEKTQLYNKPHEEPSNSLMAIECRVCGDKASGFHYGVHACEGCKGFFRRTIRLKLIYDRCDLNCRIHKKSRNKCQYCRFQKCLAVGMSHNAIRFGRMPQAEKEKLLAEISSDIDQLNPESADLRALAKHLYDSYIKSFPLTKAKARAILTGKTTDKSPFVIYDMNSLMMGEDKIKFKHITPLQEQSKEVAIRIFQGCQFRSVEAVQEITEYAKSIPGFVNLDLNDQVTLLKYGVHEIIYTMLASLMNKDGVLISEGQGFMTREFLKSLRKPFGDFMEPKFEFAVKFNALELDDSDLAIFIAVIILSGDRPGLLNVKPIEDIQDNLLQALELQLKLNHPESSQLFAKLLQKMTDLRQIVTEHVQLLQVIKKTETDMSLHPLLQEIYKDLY
Chain of Peroxisome proliferator-activated receptor gamma/Nuclear receptor coactivator 1 (Q15788 whole entry, further chain): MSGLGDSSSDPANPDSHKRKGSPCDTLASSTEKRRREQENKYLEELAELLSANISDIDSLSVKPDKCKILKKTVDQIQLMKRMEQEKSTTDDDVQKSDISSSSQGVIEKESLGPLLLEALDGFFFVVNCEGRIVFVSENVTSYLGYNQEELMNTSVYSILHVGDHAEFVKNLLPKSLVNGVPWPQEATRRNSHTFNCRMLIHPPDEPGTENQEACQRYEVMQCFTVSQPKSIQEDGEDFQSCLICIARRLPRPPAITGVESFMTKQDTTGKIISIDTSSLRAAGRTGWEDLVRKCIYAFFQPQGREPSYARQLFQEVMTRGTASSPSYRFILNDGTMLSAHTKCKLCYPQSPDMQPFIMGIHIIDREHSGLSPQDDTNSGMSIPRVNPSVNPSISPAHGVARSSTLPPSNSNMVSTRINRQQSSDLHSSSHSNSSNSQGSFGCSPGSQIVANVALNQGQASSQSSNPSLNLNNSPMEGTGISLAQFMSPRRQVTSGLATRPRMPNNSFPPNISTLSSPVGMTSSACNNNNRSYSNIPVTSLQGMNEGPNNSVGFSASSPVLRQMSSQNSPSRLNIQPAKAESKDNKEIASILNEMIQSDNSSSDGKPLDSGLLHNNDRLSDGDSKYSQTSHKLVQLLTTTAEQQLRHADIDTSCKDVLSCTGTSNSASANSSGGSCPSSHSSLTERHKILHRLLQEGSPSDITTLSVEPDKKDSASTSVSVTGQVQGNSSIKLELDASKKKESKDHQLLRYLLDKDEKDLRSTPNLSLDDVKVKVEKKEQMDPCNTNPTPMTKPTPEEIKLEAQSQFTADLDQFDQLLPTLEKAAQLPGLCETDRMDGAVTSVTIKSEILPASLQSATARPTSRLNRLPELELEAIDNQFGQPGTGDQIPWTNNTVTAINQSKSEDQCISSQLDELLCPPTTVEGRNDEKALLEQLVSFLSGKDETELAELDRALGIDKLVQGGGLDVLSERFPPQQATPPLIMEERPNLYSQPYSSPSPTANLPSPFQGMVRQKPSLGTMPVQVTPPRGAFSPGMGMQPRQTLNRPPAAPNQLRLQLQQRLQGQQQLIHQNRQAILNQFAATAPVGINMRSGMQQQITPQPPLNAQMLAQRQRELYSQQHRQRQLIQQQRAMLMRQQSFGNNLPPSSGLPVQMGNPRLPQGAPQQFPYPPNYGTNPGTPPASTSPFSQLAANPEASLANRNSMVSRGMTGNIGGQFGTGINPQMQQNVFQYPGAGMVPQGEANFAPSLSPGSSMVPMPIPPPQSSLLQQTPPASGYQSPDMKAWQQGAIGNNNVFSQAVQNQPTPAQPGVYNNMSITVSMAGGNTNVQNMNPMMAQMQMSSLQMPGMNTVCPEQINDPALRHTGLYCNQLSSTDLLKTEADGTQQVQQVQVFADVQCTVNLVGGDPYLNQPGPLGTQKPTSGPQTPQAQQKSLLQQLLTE

[4] = molecular target: T1, Calpain-2 catalytic subunit (Sus scrofa, UniProt P43367); experiment: pig calpain II inhibitor potency, dose response, biochemical, fluorogenic peptide substrate (AID 1420); type: functional
T1 sequence (P43367 whole entry): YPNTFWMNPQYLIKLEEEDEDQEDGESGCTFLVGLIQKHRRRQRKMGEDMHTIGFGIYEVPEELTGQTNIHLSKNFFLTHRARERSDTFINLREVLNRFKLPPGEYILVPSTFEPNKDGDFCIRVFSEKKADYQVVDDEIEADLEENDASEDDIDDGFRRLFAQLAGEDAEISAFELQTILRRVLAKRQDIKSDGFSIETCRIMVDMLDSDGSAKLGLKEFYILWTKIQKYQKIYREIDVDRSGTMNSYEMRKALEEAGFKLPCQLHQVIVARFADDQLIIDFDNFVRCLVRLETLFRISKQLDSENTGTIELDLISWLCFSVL

[5] = inhibitors of intracellular T. cruzi replication, confirmation, NIH3T3 host cells, beta-gal luminescence (AID 2044); type: functional, cell-based;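 note: intracellular parasites grown in NIH/3T3 mouse fibroblasts as host cells; luminescent beta-galactosidase reporter signal from transgenic T. cruzi replicating inside host cells; inhibitors lower the luminescence signal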
[6] = cytotoxicity toward NIH3T3 fibroblasts, dose response, counter-screen, cell-based, ATP luminescence, mouse fibroblasts (AID 2010); type: functional;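 note: cells exposed to compound for about 90 hours before reading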
[7] = molecular target: T2, CAAX prenyl protease 2 (Saccharomyces cerevisiae S288c, UniProt Q03530); type: biochemical
T2 sequence (Q03530 whole entry): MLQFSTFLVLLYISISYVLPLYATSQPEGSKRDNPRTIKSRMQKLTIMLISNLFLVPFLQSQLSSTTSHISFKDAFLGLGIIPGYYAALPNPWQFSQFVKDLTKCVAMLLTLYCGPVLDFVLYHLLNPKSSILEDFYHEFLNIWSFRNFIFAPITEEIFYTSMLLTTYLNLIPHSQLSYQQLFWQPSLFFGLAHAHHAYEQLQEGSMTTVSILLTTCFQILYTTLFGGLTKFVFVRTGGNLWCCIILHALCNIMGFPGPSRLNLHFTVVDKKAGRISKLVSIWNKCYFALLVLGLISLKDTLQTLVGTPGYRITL

[8] = molecular target: T3, Short transient receptor potential channel 4 (Mus musculus, UniProt Q9QUQ5); experiment: mouse TRPC4 channel inhibitors, dose response, cell-based, HEK293 TRPC4/mu-opioid, Fluo-4 calcium (AID 434942); type: functional;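 note: potency of inhibitors blocking the TRPC4 calcium response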
T3 sequence (Q9QUQ5 whole entry): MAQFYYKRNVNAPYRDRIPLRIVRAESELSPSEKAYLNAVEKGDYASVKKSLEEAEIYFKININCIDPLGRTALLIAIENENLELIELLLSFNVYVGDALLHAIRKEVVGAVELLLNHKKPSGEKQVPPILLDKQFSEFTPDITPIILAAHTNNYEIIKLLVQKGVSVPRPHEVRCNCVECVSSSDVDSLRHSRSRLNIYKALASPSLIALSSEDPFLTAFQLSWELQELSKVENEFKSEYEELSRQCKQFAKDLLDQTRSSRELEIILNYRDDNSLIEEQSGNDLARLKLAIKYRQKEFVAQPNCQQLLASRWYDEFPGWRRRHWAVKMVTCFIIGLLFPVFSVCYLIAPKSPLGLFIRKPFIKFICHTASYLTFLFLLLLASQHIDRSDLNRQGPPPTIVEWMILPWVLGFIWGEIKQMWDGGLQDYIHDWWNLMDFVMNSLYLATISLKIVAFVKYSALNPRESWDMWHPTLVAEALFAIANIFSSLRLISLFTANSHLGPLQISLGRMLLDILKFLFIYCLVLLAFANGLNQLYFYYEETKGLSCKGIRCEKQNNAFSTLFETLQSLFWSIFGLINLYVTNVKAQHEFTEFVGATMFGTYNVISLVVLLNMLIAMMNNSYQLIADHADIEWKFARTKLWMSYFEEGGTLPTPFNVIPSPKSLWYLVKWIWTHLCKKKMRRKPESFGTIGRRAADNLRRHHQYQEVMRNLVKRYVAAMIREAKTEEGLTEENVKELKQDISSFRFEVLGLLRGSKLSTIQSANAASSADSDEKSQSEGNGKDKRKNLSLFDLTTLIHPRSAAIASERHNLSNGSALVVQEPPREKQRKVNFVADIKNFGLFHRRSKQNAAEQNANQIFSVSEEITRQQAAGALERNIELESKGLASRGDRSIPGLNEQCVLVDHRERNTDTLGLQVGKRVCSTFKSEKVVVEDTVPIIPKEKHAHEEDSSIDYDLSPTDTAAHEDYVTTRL

[9] = cytotoxicity in HPDE-C7 cells, cell-based, fluorescence, HTS (AID 430); type: functional; conditions: Homo sapiens
[10] = cytotoxicity in KRAS-transformed pancreatic duct cells, primary screen, cell-based, fluorescence, HTS (AID 431); type: functional; conditions: Homo sapiens;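 note: cell line used: HPDE-C7K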
[11] = molecular target: DNA dC->dU-editing enzyme APOBEC-3A (Homo sapiens, UniProt P31941); experiment: Dose Response confirmation of small molecule APOBEC3A DNA Deaminase Inhibitors via a fluorescence-based single-stranded DNA deaminase assay. [Related pubchem assays (depositor defined):AID493011, AID493024]; type: functional
Chain of DNA dC->dU-editing enzyme APOBEC-3A (P31941 whole entry, the tested form may be a part): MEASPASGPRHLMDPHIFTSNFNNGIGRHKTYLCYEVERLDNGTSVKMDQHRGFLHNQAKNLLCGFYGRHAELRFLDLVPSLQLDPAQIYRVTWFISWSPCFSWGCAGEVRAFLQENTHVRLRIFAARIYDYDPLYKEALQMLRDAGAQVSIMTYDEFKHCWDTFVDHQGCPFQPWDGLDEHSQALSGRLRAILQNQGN

[12] = molecular target: T4, Carboxy-terminal domain RNA polymerase II polypeptide A small phosphatase 1 (Homo sapiens, UniProt Q9GZU7); experiment: inhibitors of CTDSP1, concentration-response testing, biochemical assay, absorbance-based, actives from ultra-high-throughput screening (AID 540297); type: functional
T4 sequence (Q9GZU7 whole entry): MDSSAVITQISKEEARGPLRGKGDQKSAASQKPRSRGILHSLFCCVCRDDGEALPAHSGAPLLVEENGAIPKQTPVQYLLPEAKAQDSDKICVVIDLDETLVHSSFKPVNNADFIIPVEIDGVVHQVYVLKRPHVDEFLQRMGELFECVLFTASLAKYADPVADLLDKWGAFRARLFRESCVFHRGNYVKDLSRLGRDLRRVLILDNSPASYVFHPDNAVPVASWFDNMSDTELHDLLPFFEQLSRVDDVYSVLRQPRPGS

[13] = molecular target: T5, DNA dC->dU-editing enzyme APOBEC-3G (Homo sapiens, UniProt Q9HC16); type: functional
T5 sequence (Q9HC16 whole entry): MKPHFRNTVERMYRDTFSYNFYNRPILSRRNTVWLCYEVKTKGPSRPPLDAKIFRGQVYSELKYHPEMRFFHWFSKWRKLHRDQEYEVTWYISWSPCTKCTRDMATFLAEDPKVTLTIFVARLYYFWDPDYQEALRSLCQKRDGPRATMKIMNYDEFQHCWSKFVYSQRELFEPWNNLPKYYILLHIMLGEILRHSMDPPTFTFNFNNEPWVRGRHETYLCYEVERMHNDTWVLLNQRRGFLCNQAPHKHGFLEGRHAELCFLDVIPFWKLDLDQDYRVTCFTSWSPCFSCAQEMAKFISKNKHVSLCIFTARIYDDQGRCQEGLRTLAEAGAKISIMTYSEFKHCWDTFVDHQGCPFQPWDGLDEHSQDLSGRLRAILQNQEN

[14] = molecular target: Glucose-6-phosphate 1-dehydrogenase (Homo sapiens, UniProt P11413); experiment: human G6PD enzyme inhibitors, dose response, selectivity assay for P. falciparum G6PD inhibitor project, biochemical, fluorescence (AID 504792); type: functional
Chain of Glucose-6-phosphate 1-dehydrogenase (P11413 whole entry): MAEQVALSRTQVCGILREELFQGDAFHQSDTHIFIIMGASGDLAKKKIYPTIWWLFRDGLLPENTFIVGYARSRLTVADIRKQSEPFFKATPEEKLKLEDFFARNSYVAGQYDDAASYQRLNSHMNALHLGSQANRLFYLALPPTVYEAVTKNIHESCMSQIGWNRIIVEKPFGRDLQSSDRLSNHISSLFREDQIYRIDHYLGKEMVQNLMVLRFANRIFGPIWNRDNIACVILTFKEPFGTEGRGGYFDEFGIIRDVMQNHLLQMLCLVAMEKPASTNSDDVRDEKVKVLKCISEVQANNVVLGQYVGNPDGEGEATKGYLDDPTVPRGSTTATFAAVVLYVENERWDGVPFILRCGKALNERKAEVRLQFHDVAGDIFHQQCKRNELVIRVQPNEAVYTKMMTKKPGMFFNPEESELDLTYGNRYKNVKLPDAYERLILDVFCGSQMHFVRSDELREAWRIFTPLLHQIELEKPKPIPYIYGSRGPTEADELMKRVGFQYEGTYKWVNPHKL

[15] = cells; type: functional, cell-based
[16] = molecular target: T5, DNA dC->dU-editing enzyme APOBEC-3G; experiment: Dose Response confirmation of small molecule APOBEC3G DNA Deaminase Inhibitors via a fluorescence-based single-stranded DNA deaminase assay. [Related pubchem assays (depositor defined):AID493012, AID493028]; type: functional
[17] = cells; type: functional, cell-based; remark: listed apart in the source
[18] = microbe, parasite or virus in culture; type: functional; conditions: Mycobacterium tuberculosis
[19] = molecular target: Trypsin (Sus scrofa, UniProt P00761); experiment: porcine trypsin inhibitors, dose response, selectivity assay for Rce1 protease inhibitor project, biochemical, quenched peptide fluorescence, cherry-pick (AID 488789)
[20] = HEp-2 cell cytotoxicity, dose response, cytotoxicity control for RSV inhibitor project, HTS (AID 2410); type: functional; conditions: human respiratory syncytial virus
[21] = off-target signal loss in HeLa-CEM21 co-culture – HeLa F-luc CTL cells, cherry-picked, counter-screen for HIV-1 Env fusion inhibitor project, dose response (AID 652040); type: functional, cell-based;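 note: potency for signal decrease marking cytotoxic or nonspecific inhibition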

Chain of Peroxisome proliferator-activated receptor gamma/Nuclear receptor coactivator 2 (P37231 whole entry): as the sequence (P37231 whole entry) above
Chain of Peroxisome proliferator-activated receptor gamma/Nuclear receptor coactivator 2 (Q15596 whole entry, further chain): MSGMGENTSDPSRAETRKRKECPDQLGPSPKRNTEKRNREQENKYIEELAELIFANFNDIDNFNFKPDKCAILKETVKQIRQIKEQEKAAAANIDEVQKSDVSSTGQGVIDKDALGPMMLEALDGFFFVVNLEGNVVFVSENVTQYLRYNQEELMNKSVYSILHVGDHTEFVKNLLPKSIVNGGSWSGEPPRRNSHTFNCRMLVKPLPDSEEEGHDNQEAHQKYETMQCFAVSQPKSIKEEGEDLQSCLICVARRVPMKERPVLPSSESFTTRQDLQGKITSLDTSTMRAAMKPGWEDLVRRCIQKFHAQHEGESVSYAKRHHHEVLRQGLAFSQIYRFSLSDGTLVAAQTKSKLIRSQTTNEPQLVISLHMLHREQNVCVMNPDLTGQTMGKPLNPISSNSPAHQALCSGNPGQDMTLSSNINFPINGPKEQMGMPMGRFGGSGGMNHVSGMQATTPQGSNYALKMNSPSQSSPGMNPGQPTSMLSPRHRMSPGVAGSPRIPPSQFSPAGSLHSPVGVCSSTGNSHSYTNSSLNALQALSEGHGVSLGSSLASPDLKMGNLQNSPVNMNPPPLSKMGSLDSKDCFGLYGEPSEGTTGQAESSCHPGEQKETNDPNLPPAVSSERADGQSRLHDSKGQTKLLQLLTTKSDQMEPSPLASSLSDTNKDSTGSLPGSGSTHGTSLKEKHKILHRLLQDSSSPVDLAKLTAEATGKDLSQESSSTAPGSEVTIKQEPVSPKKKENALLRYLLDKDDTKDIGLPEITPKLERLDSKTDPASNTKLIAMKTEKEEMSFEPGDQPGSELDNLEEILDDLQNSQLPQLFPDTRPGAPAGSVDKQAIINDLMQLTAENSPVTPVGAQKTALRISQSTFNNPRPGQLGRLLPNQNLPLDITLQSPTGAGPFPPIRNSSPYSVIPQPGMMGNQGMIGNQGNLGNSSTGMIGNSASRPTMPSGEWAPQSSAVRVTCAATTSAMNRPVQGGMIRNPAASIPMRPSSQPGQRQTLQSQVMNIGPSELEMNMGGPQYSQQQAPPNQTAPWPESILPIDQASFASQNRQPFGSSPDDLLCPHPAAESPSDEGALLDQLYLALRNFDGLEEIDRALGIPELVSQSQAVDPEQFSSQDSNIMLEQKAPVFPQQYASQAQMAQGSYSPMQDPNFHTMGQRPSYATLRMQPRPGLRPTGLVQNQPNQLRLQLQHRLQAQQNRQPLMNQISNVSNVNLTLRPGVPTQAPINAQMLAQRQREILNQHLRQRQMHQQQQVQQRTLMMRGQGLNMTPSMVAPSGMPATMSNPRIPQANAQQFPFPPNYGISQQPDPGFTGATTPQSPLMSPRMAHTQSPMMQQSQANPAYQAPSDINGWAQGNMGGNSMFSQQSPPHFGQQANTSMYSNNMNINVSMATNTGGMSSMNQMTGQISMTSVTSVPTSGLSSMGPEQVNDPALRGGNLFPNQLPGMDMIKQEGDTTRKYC

COC(=O)c1ccccc1NC(=O)c1cc(-c2ccc(O)cc2)on1
EC50 [1]: 31.5 µM (not active) | EC50 [2]: 33.6 µM (not active) | EC50 [3]: 24.9 µM (not active)

COCCn1c(C)cc(C(=O)COC(=O)CNC(=O)c2ccccc2)c1C
IC50 [4]: > 50 µM (not active)

Cc1nc(N2CCOCC2)c2c(C)c(C(=O)Nc3ccc(C(F)(F)F)cc3)sc2n1
EC50 [5]: 0.522 µM (active) | EC50 [6]: > 60 µM (not active) | AC50 [7]: 5.99 µM (active)

O=C(COC(=O)Cn1cnc2ccccc2c1=O)Nc1ccccc1Sc1ccc(Cl)cc1
EC50 [8]: 1.88 µM (active)

CCOC(=O)C1=C(C)N=C(C)/C(=C(/O)OC)C1c1cccc(Cl)c1Cl (stereo unspecified)
EC50 [9]: 8.98 µM (active) | EC50 [10]: 10.4 µM (active)

C[N+](C)(C)CCCN(Cc1ccc2c(c1)OCO2)C(=O)NC1CCCCC1
IC50 [11]: 2.43 µM (active) | IC50 [12]: 3.12 µM (active) | IC50 [13]: 4.17 µM (active)

CCC(C)(C)c1nnc(NC(=O)C2CCN(C(=O)c3ccco3)CC2)s1
IC50 [14]: > 80 µM (inactive) | EC50 [15]: > 350 µM (not active) | IC50 [16]: 25.9 µM (active) | EC50 [17]: > 350 µM (not active)

O=c1c2ccccc2[nH]c(=S)n1CCN1CCN(Cc2ccccc2)CC1
EC50 [8]: 4.73 µM (active)

CCn1c(=N)n(CC(=O)c2ccc(Br)s2)c2ccccc21
EC50 [8]: 13.3 µM (active)

CNC(=O)OCc1n(C)cc[n+]1C
IC50 [11]: 1.76 µM (active) | IC50 [13]: 1.31 µM (active)

CC(C)(C)c1ccc(Cn2nnc3c(O)nc(C4CCCN(C(=O)Cc5cccs5)C4)nc32)cc1 (stereo unspecified)
EC50 [9]: 15.6 µM (active) | EC50 [10]: 18.4 µM (active) | CC50 [18]: > 40 µM (active)

Cc1oc(-c2ccoc2)nc1CN(Cc1ccccc1)CC1CC1
EC50 [8]: 4.22 µM (active)

Cc1cccc2[nH]c3c(N4CCC5(CC4)OCCO5)ncnc3c12
AC50 [7]: 13.7 µM (active) | AC50 [19]: 36.5 µM (active)

CCOC(=O)c1c2c(c(=S)n(-c3ccccc3)c1N)CCC2
IC50 [4]: 7.26 µM (not active) | CC50 [20]: 26.4 µM (active) | EC50 [9]: 10.4 µM (active) | EC50 [10]: 9.88 µM (active)

CC(C)(C)NC(=O)c1ccc(Sc2ccccc2)c([N+](=O)[O-])c1
IC50 [4]: 11.9 µM (not active)

COc1ccc(OCC(=O)Nc2cc(-c3nn(C)c(=O)c4ccccc34)ccc2OC)cc1
EC50 [1]: 31.2 µM (not active) | EC50 [2]: 76.6 µM (not active) | AC50 [21]: 30.3 µM (active) | EC50 [3]: 62.6 µM (not active)

— ChEMBL document CHEMBL1201862, “PubChem BioAssay data set” (2004)
